According to US20260184712A1, “Heterocyclic Compounds as ENT Inhibitors and Compounds for Use in the Treatment of Cancers” (iTeos Belgium SA, priority 2022, published 2026):

How the values were obtained:
Type in all cases: cell-based
[1] = tested on: stimulated primary human T cells; assay: T cell proliferation assay, Condition A (X-VIVO15); conditions: Homo sapiens, T-cell, 96 h; Condition A: X-VIVO15 medium; anti-CD3/anti-CD28 beads, ATP, 4 days; CFSE-lo T cells
How it was run: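 CFSE-labelled human CD3+ T cells (2×10^4/well) in serum-free X-VIVO15 were activated with anti-CD3/CD28 beads (1 bead:2 cells), pre-incubated 30 min with inhibitor, then cultured with 100 uM ATP for 4 days at 37 °C. Flow cytometry measured %CFSE^lo cells, and IC50/IC90 came from log-concentration curve fits.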

Human ENT2 = target: T1, Human ENT2 (Homo sapiens, UniProt Q14542); assay: Adenosine uptake assay, ENT2-mediated transport in MDCKII cells; conditions: MDCKIIENT2-LV cells, probe adenosine 0.5 μM, pre-incubation 30 min, incubation 10 min
T1 construct: expressed in transfected cells
T1 sequence (Q14542 1-456): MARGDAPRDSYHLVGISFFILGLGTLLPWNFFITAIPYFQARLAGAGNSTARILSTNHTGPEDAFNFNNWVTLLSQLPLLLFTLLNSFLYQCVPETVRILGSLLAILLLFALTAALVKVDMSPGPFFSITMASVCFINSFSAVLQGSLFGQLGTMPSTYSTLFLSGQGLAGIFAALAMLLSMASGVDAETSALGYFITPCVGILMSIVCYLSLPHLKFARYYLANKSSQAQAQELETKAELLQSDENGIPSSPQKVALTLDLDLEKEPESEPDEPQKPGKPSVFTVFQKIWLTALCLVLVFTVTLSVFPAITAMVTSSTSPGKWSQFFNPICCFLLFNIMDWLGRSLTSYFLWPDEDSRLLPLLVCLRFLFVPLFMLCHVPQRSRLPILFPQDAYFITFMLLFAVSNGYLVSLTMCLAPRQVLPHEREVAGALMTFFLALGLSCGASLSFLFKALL
Protocol: The goal of this study was to determine the potency and selectivity of ENT1 inhibitors by measuring ENT1 and ENT2-mediated transport using an in vitro cellular uptake assay.
Human ENT1 and ENT2 transporters were stably expressed in Madin-Darby Canine Kidney II (MDCKII) cells via transduction. Cell lines overexpressing the relevant ENT1 or ENT2 molecules were preincubated with a dose range of the relevant compound for 30 minutes before introduction of the specific substrate at the concentration indicated in the Table assay parameters below. The transporter assay was conducted for the time specified in the Table assay parameters before the specific uptake of the substrate into the cells was quantified. Specific uptake was determined by comparing the uptake from the cells treated with the relevant compounds and the uptake by cells not overexpressing the transporter in question.
Specific uptake for each concentration of the test sample was normalized to the DMSO control value to generate a relative accumulation value (or relative transporter activity). Data were plotted against the log molar concentration of the test reagent used. IC50 values were generated with Prism version 9.4.1 and the following function: log(inhibitor) vs. response—Variable slope (four parameters).

[2] = tested on: stimulated primary human T cells; assay: T cell proliferation assay, Condition B (X-VIVO15, 2% HSA and 0.1% AAG); conditions: Homo sapiens, T-cell, 96 h; Condition B: X-VIVO15 medium containing HSA and α1-Acid Glycoprotein; anti-CD3/anti-CD28 beads, ATP, 4 days; CFSE-lo T cells
How it was run: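 CFSE-labelled CD3+ T cells from healthy donors (2×10^4/well) in X-VIVO15 with 2% HSA and 0.1% AAG were stimulated with anti-CD3/CD28 beads. After 30 min pre-incubation with inhibitor, ATP was added and cells were cultured 4 days at 37° C. Flow cytometry gave % CFSE^lo cells, with IC50/IC90 and pICF from curve fits.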

| SMILES | IC50 [1] [µM] | IC50 (Human ENT2) [µM] | IC50 [2] [µM] |
| --- | --- | --- | --- |
| C[C@H]1O[C@@H](n2c(NC3CCCC3)nc3c(OCc4ccc([N+](=O)[O-])cc4)ncnc32)[C@H](O)[C@@H]1O [Compound 6] | < 0.001 | 0.02 to 1 | 0.001 to 0.02 |
| C[C@H]1O[C@@H](n2c(NC3CCC(O)CC3)nc3c(OCc4ccc([N+](=O)[O-])cc4)ncnc32)[C@H](O)[C@@H]1O (stereo partly drawn) [Compound 28] | < 0.001 | > 1 | 0.001 to 0.02 |
| C[C@H]1O[C@@H](n2c(NC3CCOCC3)nc3c(OCc4ccc(C#N)cc4)ncnc32)[C@H](O)[C@@H]1O [Compound 73] | < 0.001 | 0.02 to 1 | 0.02 to 0.5 |
| C[C@H]1O[C@@H](n2c(NC3CCOCC3)nc3c(OCc4ccc(OC(F)F)nc4)ncnc32)[C@H](O)[C@@H]1O [Compound 75] | < 0.001 | 0.02 to 1 | 0.02 to 0.5 |
| C[C@H]1O[C@@H](n2c(N[C@H]3CCC(F)(F)C3)nc3c(OCc4ccc(C#N)cc4)ncnc32)[C@H](O)[C@@H]1O [Compound 82] | < 0.001 | 0.02 to 1 | 0.02 to 0.5 |
| C[C@H]1O[C@@H](n2cnc3c(SCc4ccc([N+](=O)[O-])cc4)ncnc32)[C@H](O)[C@@H]1O [Compound 147] | 0.001 to 0.02 | > 1 | 0.02 to 0.5 |
| C[C@H]1O[C@@H](n2cnc3c(N4CCc5ccc([N+](=O)[O-])cc5C4)ncnc32)[C@H](O)[C@@H]1O [Compound 151] | < 0.001 | > 1 | 0.02 to 0.5 |
| C[C@H]1O[C@@H](n2cnc3c(OCc4ccc([N+](=O)[O-])cc4)ncnc32)[C@H](O)[C@@H]1O [Compound 166] | 0.001 to 0.02 | > 1 | 0.02 to 0.5 |
| C[C@H]1O[C@@H](n2cnc3c(OCc4ccc(OC(F)F)cc4)ncnc32)[C@H](O)[C@@H]1O [Compound 173] | 0.001 to 0.02 | > 1 | 0.02 to 0.5 |
| OCCOC[C@H]1O[C@@H](n2cnc3c(OCc4ccc(OC(F)(F)F)cc4)ncnc32)[C@H](O)[C@@H]1O [Compound 175] | 0.001 to 0.02 | > 1 | 0.02 to 0.5 |
